Measured values published in PubChem BioAssay (NCI).
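All cell lines were grown in 96-well plates and treated with compound for 48 hours. Definition used: TGI = concentration required for complete inhibition of growth.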

Columns and labels:
Assay in all cases: NCI anticancer screen, dose series, 48 h
K-562 leukemia = tested on: K-562 leukemia
A498 renal = tested on: A498 renal
SNB-19 CNS = tested on: SNB-19 CNS
HCT-116 colon = tested on: HCT-116 colon
NCI-H226 lung = tested on: NCI-H226 lung
SK-MEL-2 melanoma = tested on: SK-MEL-2 melanoma
HCC-2998 colon = tested on: HCC-2998 colon
SF-539 CNS = tested on: SF-539 CNS
DLD-1 colon = tested on: DLD-1 colon
SNB-75 CNS = tested on: SNB-75 CNS
OVCAR-4 ovarian = tested on: OVCAR-4 ovarian
MALME-3M melanoma = tested on: MALME-3M melanoma
M19-MEL melanoma = tested on: M19-MEL melanoma
NCI-H522 lung = tested on: NCI-H522 lung
TK-10 renal = tested on: TK-10 renal
HOP-62 NSCLC = tested on: HOP-62 NSCLC
KM20L2 colon = tested on: KM20L2 colon
SK-MEL-5 melanoma = tested on: SK-MEL-5 melanoma
M14 melanoma = tested on: M14 melanoma
SW-620 colon = tested on: SW-620 colon
SF-295 CNS = tested on: SF-295 CNS
HL-60(TB) leukemia = tested on: HL-60(TB) leukemia
U251 CNS = tested on: U251 CNS
NCI-H23 lung = tested on: NCI-H23 lung
CCRF-CEM leukemia = tested on: CCRF-CEM leukemia
SF-268 CNS = tested on: SF-268 CNS
ACHN renal = tested on: ACHN renal
SR leukemia = tested on: SR leukemia
DMS 273 small cell lung = tested on: DMS 273 small cell lung
RPMI-8226 leukemia = tested on: RPMI-8226 leukemia
EKVX NSCLC = tested on: EKVX NSCLC
MOLT-4 leukemia = tested on: MOLT-4 leukemia
IGROV1 ovarian = tested on: IGROV1 ovarian
786-0 renal = tested on: 786-0 renal
HT29 colon = tested on: HT29 colon
HCT-15 colon = tested on: HCT-15 colon
CAKI-1 renal = tested on: CAKI-1 renal
LXFL 529 NSCLC = tested on: LXFL 529 NSCLC
A549 NSCLC = tested on: A549 NSCLC
OVCAR-8 ovarian = tested on: OVCAR-8 ovarian
LOX IMVI melanoma = tested on: LOX IMVI melanoma
RXF 393 renal = tested on: RXF 393 renal
UO-31 renal = tested on: UO-31 renal
UACC-257 melanoma = tested on: UACC-257 melanoma
NCI-H460 lung = tested on: NCI-H460 lung
UACC-62 melanoma = tested on: UACC-62 melanoma
SN12C renal = tested on: SN12C renal
COLO 205 colon = tested on: COLO 205 colon
DMS 114 small cell lung = tested on: DMS 114 small cell lung
XF 498 CNS = tested on: XF 498 CNS
KM12 colon = tested on: KM12 colon
SNB-78 CNS = tested on: SNB-78 CNS
OVCAR-5 ovarian = tested on: OVCAR-5 ovarian
HOP-18 NSCLC = tested on: HOP-18 NSCLC
SK-MEL-28 melanoma = tested on: SK-MEL-28 melanoma
OVCAR-3 ovarian = tested on: OVCAR-3 ovarian
HOP-92 NSCLC = tested on: HOP-92 NSCLC
SK-OV-3 ovarian = tested on: SK-OV-3 ovarian

Measured: TGI

CC(=O)Nc1ccc(S(=O)(=O)N/N=C/CN2C(=O)c3ccccc3C2=O)cc1
> 100 µM: K-562 leukemia | A498 renal | SNB-19 CNS | HCT-116 colon | NCI-H226 lung | SK-MEL-2 melanoma | HCC-2998 colon | SF-539 CNS | DLD-1 colon | SNB-75 CNS | OVCAR-4 ovarian | MALME-3M melanoma | M19-MEL melanoma | NCI-H522 lung | TK-10 renal | HOP-62 NSCLC | KM20L2 colon | SK-MEL-5 melanoma | M14 melanoma | SW-620 colon | SF-295 CNS | HL-60(TB) leukemia | U251 CNS | NCI-H23 lung | CCRF-CEM leukemia | SF-268 CNS | ACHN renal | SR leukemia | DMS 273 small cell lung | RPMI-8226 leukemia | EKVX NSCLC | MOLT-4 leukemia | IGROV1 ovarian | 786-0 renal | HT29 colon | HCT-15 colon | CAKI-1 renal | LXFL 529 NSCLC | A549 NSCLC | OVCAR-8 ovarian | LOX IMVI melanoma | RXF 393 renal | UO-31 renal | UACC-257 melanoma | NCI-H460 lung | UACC-62 melanoma | SN12C renal | COLO 205 colon | DMS 114 small cell lung | XF 498 CNS | KM12 colon

NC(=O)CN(CC(N)=O)C(N)=O
> 100 µM: SNB-78 CNS | K-562 leukemia | A498 renal | SNB-19 CNS | HCT-116 colon | NCI-H226 lung | SK-MEL-2 melanoma | SF-539 CNS | SNB-75 CNS | OVCAR-4 ovarian | MALME-3M melanoma | M19-MEL melanoma | NCI-H522 lung | TK-10 renal | KM20L2 colon | SK-MEL-5 melanoma | M14 melanoma | SW-620 colon | OVCAR-5 ovarian | SF-295 CNS | HL-60(TB) leukemia | HOP-18 NSCLC | U251 CNS | SK-MEL-28 melanoma | NCI-H23 lung | CCRF-CEM leukemia | SF-268 CNS | ACHN renal | OVCAR-3 ovarian | HOP-92 NSCLC | DMS 273 small cell lung | RPMI-8226 leukemia | EKVX NSCLC | MOLT-4 leukemia | IGROV1 ovarian | 786-0 renal | HT29 colon | HCT-15 colon | CAKI-1 renal | LXFL 529 NSCLC | A549 NSCLC | SK-OV-3 ovarian | OVCAR-8 ovarian | LOX IMVI melanoma | RXF 393 renal | UO-31 renal | UACC-257 melanoma | NCI-H460 lung | UACC-62 melanoma | COLO 205 colon | DMS 114 small cell lung | XF 498 CNS | KM12 colon
